These results are taken from patent US12358904B2, “Inhibitors of TYK2” (Atomwise Inc., priority 2023, dated 2025).

One test concerns IL-12/pSTAT4. Briefly: IL-12 induced pSTAT4 assay in NK-92 cells. As to conditions: Homo sapiens, NK92, IL-12 stimulation, read-out: Cellular potency (IL-12/pSTAT4). The test is classed as cell-based. The essentials:
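Overnight-starved NK-92 cells (20K/well) pre-incubated with compounds (1000 to 0.05 nM final) 30 min at 37 °C, then stimulated with IL-12 (10 ng/ml) for 30 min at 37 °C. Lysates assayed for pSTAT4 (Tyr693) by MSD electrochemiluminescence.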

In the next test the test system is GM-CSF/pSTAT5. Briefly: GM-CSF induced pSTAT5 assay in CellSensor irf1-bla TF-1 cells. The test is classed as cell-based. The following applies: Homo sapiens, GM-CSF 1 ng/mL, read-out: Cellular selectivity (GM-CSF induced pSTAT5). Here is the method:
The CellSensor irf1-bla TF-1 cell line (LifeTechnologies, K1657) was cultured in RPMI 1640 Medium (Invitrogen 72400-047), 10% Fetal Bovine Serum (Invitrogen, 26400044), 1 mM Sodium pyruvate (Life Technologies, 11360039), 1% MEM NEAA (Life Technologies, 11140-035), 2 ng/ml of human recombinant GM-CSF (Fisher, PHC2015), 1% Penicillin/Streptomycin (Life Technologies, 15140-122) and 5 μg/ml of Blasticidin (ThermoFisher, A1113903).
The cell line was seeded in a T75 flask at 13×10^6 cells/50 mL in starvation medium (Opti-MEM™ I Reduced Serum Medium, no phenol red (Life Technologies, 11058-021), 1 mM Na pyruvate (Life Technologies, 11360039), 1% MEM NEAA (Life Technologies, 11140-035), and 1% Penicillin/Streptomycin (Life Technologies, 15140-122)) for 16 hours at 37° C. under 5% CO2 the day before the assay.
For the assay, CellSensor irf1-bla TF-1 cells were seeded at 30 000 cells/32 μL (starvation medium)/well in a 384-well plate.
Compounds were added on the cells in 4 μL (starvation medium)/well at 10× the final concentration. They were incubated for 30 minutes at 37° C.
Human recombinant carrier-free GM-CSF (ThermoFisher, ref PHC2015) was added to the wells in 4 μL (starvation medium)/well at 10×. The final concentration was 1 ng/mL. Control wells without GM-CSF treatment were added. Plates were incubated for 5 hours at 37° C.
6× LiveBlazer-FRET substrate (Invitrogen, K1085) was added to the wells at 8 μL/well. The substrate was prepared shortly before use by mixing 6 μL of solution A and 60 μL of solution B to 934 μL of solution C. Plates were incubated for 2.5 hours at room temperature in the dark. The plates were read on an Envision (Perkin Elmer) with an excitation at a wavelength of 409 nm and two wavelengths for the emission 520 nm and 450 nm. The ratio between the […] emission was used to calculate the IC50s.
The IC50 for the inhibition of pSTAT5 was calculated with the Xlfit software using the 4 Parameter Logistic Model or Sigmoidal Dose-Response Model (model 205).

The subject of a further test is IL-6/pSTAT3. Briefly: IL-6 induced pSTAT3 assay in TF-1 cells. The test is classed as cell-based. As to conditions: Homo sapiens, read-out: Cellular selectivity (IL-6/pSTAT3). Here is the method: The following example describes the IL-6 induced pSTAT3 assay used to determine the cellular selectivity (IL-6/pSTAT3) of the TYK2 inhibitors.
TF-1 (ATCC®, CRL-2003™) cells were cultured in RPMI 1640 Medium, with GlutaMAX™ Supplement, HEPES for Cell Culture (Life Technologies, 72400047), 10% Fetal Bovine Serum (Life Technologies, 26400044), 2 ng/mL human recombinant GM-CSF (Life Technologies, PHC2013), 1 mM Sodium pyruvate (Life Technologies, 11360039), 1% MEM NEAA (Life Technologies, 11140-035), 1% Penicillin/Streptomycin (Life Technologies, 15140-122).
TF-1 (70×10^6) cells were starved overnight in T01 50 flasks (Opti-MEM™ I Reduced Serum Medium, no phenol red (Life Technologies, 11058-021), 1 mM Na pyruvate (Life Technologies, 11360039), 1% MEM NEAA (Life Technologies, 11140-035), and 1% Penicillin/Streptomycin (Life Technologies, 15140-122)) then seeded into 96-well TPP plates (150 000 cell/well) and incubated with test compounds (Final Concentration [nM] 10000-0.05) for 30 minutes at 37° C. […] Stimulation was terminated by addition of lysis buffer (MSD K150SVD) and pSTAT3 detection was measured with Phospho-STAT3 (Tyr705) Kit MSD K150SVD)) according to manufacturer's instruction. Briefly, cell lysates were added to pre-blocked plates, sealed, and shake for 1 hour at room temperature. Plates were then washed and incubated with detection antibody for 1 hour at room temperature. After washing, Read Buffer was added, and plates were read on MSD instrument (Model 1300 MSD Quickplex SQ 120).

The target of a further test is T1, TYK2-JH2 (Homo sapiens, UniProt P29597).
T1 construct: TYK JH2 enzyme mix (ChemPartnec CP20210818A-BV); purchased ChemPartner CP20210818A-BV
T1 sequence (P29597 589-875 limits assumed): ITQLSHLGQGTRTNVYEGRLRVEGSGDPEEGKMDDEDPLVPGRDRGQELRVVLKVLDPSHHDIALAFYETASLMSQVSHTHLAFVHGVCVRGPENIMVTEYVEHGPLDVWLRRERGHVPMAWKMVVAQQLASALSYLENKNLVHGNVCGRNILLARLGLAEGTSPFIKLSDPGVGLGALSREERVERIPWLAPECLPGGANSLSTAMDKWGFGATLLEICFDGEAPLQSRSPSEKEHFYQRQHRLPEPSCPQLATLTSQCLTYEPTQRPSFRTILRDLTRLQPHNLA
Briefly: TYK2-JH2 HTRF binding assay (ligand efficiency). The following applies: calculated from IC50 of the TYK-JH2 binding assay (Equation 1). The essentials: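 His-tagged TYK2 JH2 (0.5 nM) preincubated 10 min at RT with compound (0.1–0.000005 μM) in 20 mM HEPES pH 7.5, 10 mM MgCl2, 0.01% Triton X-100, 1 mM DTT; then 35 nM tracer plus anti-6HIS Tb cryptate, 60 min RT. TR-FRET read (Ex340/Em495/520); IC50 converted to ligand efficiency.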

SMILES strings stand for the structures. A value given as a limit tells only on which side of the number the result lay.

As for `CC(c1ccc(Nc2cc(Nc3ncccc3S(C)(=O)=O)ncn2)nc1)N1CC2(CC(F)C2)C1` (stereo in doubt) [Compound 10, N^4-(5-((1R)-1-(6-fluoro-2-azaspiro[3.3]heptan-2-yl)ethyl) 87yridine-2-yl)-N^6-(3-(methylsulfonyl)87yridine-2-yl)pyrimidine-4,6-diamine], the IC50 with IL-12/pSTAT4 was under 0.1 µM; in the test on GM-CSF/pSTAT5, over 10 µM; in the test on IL-6/pSTAT3, 4 to 10 µM. The “Ligand Efficiency” value at TYK2-JH2 was “††† (†††: >0.39)”.

Regarding `COc1cnc(Nc2cc(Nc3ccc([C@H](C)N4CC5(COC5)C4)cn3)ncn2)c(S(C)(=O)=O)c1` [Compound 3, (S)—N^4-(5-(1-(2-oxa-6-azaspiro[3.3]heptan-6-yl)ethyl)pyridine-2-yl)-N^6-(5-methoxy-3-(methylsulfonyl)77yridine-2-yl)pyrimidine-4,6-diamine], the IC50 with IL-12/pSTAT4 is under 0.1 µM; in the test with GM-CSF/pSTAT5, over 10 µM; with IL-6/pSTAT3, 4 to 10 µM. For the same compound, the “Ligand Efficiency” value on TYK2-JH2 is “†† (††: 0.37-0.39)”.

`CS(=O)(=O)c1cccnc1Nc1cc(Nc2ccc3c(n2)CCC[C@@H]3N2CC3(COC3)C2)ncn1` [Compound 5, I-N^4-(5-(2-oxa-6-azaspiro[3.3]heptan-6-yl)-5,6,7,8-tetrahydroquinolin-2-yl)-N^6-(3-(methylsulfonyl)81yridine-2-yl)pyrimidine-4,6-diamine]: the IC50 in the test on IL-12/pSTAT4 is under 0.1 µM; in the test with GM-CSF/pSTAT5, over 10 µM; in the test with IL-6/pSTAT3, 4 to 10 µM. Moreover, at TYK2-JH2, the “Ligand Efficiency” value was “†† (††: 0.37-0.39)”.

`Cc1nc(Nc2cc(Nc3ncccc3S(C)(=O)=O)ncn2)ccc1NC1(C)COC1` [Compound 6, N^4-(6-methyl-5-((3-methyloxetan-3-yl)amino)82yridine-2-yl)-N^6-(3-(methylsulfonyl)82yridine-2-yl)pyrimidine-4,6-diamine]: the IC50 in the test with IL-12/pSTAT4 was under 0.1 µM; with GM-CSF/pSTAT5 it was over 10 µM; in the test with IL-6/pSTAT3, 4 to 10 µM. Further, the “Ligand Efficiency” value on TYK2-JH2 is “††† (†††: >0.39)”.

Take `C[C@H]1CN(C2CC2)CCN1c1ccc(Nc2cc(Nc3ncccc3S(C)(=O)=O)ncn2)nc1` [Compound 8, (S)—N^4-(5-(4-cyclopropyl-2-methylpiperazin-1-yl)85yridine-2-yl)-N^6-(3-(methylsulfonyl)85yridine-2-yl)pyrimidine-4,6-diamine]: the results for the IC50 in the test on IL-12/pSTAT4, in the test on GM-CSF/pSTAT5 and in the test on IL-6/pSTAT3 were under 0.1 µM, under 4 µM and 4 to 10 µM, respectively. In addition, the “Ligand Efficiency” value at TYK2-JH2 is given as “††† (†††: >0.39)”.

Consider `CS(=O)(=O)c1cccnc1Nc1cc(Nc2ccc3c(n2)CC[C@@H]3N2CC3(COC3)C2)ncn1` [Compound 9, N^4-((5S)-5-(2-oxa-6-azaspiro[3.3]heptan-6-yl)-6,7-dihydro-5H-cyclopenta[b]86yridine-2-yl)-N^6-(3-(methylsulfonyl)86yridine-2-yl)pyrimidine-4,6-diamine], for which the IC50 is under 0.1 µM in the test with IL-12/pSTAT4, over 10 µM in the test with GM-CSF/pSTAT5 and over 10 µM with IL-6/pSTAT3. Besides, the “Ligand Efficiency” value at TYK2-JH2 is “††† (†††: >0.39)”.

Take `C[C@@H](c1ccc(Nc2cc(Nc3ncccc3S(C)(=O)=O)ncn2)nc1C(F)(F)F)N1CC2(COC2)C1` [Compound 11, I-N^4-(5-(1-(2-oxa-6-azaspiro[3.3]heptan-6-yl)ethyl)-6-(trifluoromethyl)90yridine-2-yl)-N^6-(3-(methylsulfonyl)90yridine-2-yl)pyrimidine-4,6-diamine]: the IC50 in the test with IL-12/pSTAT4 is under 0.1 µM; in the test on GM-CSF/pSTAT5 it was over 10 µM; in the test on IL-6/pSTAT3 it was under 4 µM. On TYK2-JH2, the “Ligand Efficiency” value is on record as “†† (††: 0.37-0.39)”.

In the case of `Cc1nc(Nc2cc(Nc3ncccc3S(C)(=O)=O)ncn2)ccc1[C@H](C)N1CC2(COC2)C1` [Compound 12, N^4-(5-(1-(2-oxa-6-azaspiro[3.3]heptan-6-yl)ethyl)-6-methylpyridin-2-yl)-N^6-(3-(methylsulfonyl)92yridine-2-yl)pyrimidine-4,6-diamine], the IC50 with IL-12/pSTAT4 is under 0.1 µM; in the test on GM-CSF/pSTAT5, under 4 µM; in the test with IL-6/pSTAT3 it was under 4 µM. In addition, the “Ligand Efficiency” value at TYK2-JH2 is “††† (†††: >0.39)”.
